From US20250352615A1, “COMPOSITIONS AND METHODS FOR THE MODULATION OF PIEZO1 AND TRPV4” (Duke University, priority 2021, published 2025) come the findings set out here.

One data set concerns the target T1, TRPV4 (Mus musculus, UniProt Q9EPK8).
T1 construct: endogenous in cells; host or cells: freshly isolated mouse pancreatic acini (C57BL/6J WT)
As to the kind of experiment: Calcium imaging of TRPV4-mediated [Ca2+]i in pancreatic acini (agonists, shear stress, Yoda1 sustained phase). Type of data set: cell-based. To be noted: for agonist effect on [Ca2+]i: GSK101 50 nM, arachidonic acid 20 μM, 5′,6′-EET 5 μM. The method, then:
(§1) Mouse pancreatic acini were isolated using a standard collagenase digestion protocol. Isolated acini were plated on a thin-layered, Matrigel-coated, glass-bottom, culture plate (MatTek, P35G-0-14-C). Freshly isolated acini were used in each experiment.
Parallel-plate fluid flow chambers (μ-Slide I 0.4 Luer, and μ-Slide I 0.2 Luer from Ibidi GmbH) were used to measure the shear stress-induced changes in intracellular calcium, mitochondrial depolarization, and trypsin activation. The constant flow rate with shear stress (T) was determined as follows: τ=η×[…] φ for μ-Slide I 0.4 Luer and τ=η×330.4 φ for μ-Slide I 0.2 Luer, where η=viscosity of the medium and φ=flow rate (according to the manufacturer's instructions, Ibidi).
(§2) Calcium imaging in pancreatic acini was performed as previously described. The chemicals used in calcium imaging experiments included the following: Yoda1 (Tocris; 5586), GsMTx4 (Abcam; ab141871), 5′,6′-EET (Santa Cruz Biotechnology; sc-221066), AA (Millipore Sigma; A3611), HC067047 (Tocris; 4100), GSK1016790A (Millipore Sigma; G0798), RN1734 (Tocris; 3746), AACOCF3 (Tocris; 1462), YM26734 (Tocris; 2522), GF109203X (Tocris; 0741), and CCK8 (Sigma-Aldrich).

Data set [1] deals with T2, Piezo1 (Mus musculus, UniProt E2JF22).
T2 construct: endogenous in cells; host or cells: freshly isolated mouse pancreatic acini (WT = Piezo1 fl/fl on a C57BL/6J background)
T2 sequence (E2JF22 whole entry): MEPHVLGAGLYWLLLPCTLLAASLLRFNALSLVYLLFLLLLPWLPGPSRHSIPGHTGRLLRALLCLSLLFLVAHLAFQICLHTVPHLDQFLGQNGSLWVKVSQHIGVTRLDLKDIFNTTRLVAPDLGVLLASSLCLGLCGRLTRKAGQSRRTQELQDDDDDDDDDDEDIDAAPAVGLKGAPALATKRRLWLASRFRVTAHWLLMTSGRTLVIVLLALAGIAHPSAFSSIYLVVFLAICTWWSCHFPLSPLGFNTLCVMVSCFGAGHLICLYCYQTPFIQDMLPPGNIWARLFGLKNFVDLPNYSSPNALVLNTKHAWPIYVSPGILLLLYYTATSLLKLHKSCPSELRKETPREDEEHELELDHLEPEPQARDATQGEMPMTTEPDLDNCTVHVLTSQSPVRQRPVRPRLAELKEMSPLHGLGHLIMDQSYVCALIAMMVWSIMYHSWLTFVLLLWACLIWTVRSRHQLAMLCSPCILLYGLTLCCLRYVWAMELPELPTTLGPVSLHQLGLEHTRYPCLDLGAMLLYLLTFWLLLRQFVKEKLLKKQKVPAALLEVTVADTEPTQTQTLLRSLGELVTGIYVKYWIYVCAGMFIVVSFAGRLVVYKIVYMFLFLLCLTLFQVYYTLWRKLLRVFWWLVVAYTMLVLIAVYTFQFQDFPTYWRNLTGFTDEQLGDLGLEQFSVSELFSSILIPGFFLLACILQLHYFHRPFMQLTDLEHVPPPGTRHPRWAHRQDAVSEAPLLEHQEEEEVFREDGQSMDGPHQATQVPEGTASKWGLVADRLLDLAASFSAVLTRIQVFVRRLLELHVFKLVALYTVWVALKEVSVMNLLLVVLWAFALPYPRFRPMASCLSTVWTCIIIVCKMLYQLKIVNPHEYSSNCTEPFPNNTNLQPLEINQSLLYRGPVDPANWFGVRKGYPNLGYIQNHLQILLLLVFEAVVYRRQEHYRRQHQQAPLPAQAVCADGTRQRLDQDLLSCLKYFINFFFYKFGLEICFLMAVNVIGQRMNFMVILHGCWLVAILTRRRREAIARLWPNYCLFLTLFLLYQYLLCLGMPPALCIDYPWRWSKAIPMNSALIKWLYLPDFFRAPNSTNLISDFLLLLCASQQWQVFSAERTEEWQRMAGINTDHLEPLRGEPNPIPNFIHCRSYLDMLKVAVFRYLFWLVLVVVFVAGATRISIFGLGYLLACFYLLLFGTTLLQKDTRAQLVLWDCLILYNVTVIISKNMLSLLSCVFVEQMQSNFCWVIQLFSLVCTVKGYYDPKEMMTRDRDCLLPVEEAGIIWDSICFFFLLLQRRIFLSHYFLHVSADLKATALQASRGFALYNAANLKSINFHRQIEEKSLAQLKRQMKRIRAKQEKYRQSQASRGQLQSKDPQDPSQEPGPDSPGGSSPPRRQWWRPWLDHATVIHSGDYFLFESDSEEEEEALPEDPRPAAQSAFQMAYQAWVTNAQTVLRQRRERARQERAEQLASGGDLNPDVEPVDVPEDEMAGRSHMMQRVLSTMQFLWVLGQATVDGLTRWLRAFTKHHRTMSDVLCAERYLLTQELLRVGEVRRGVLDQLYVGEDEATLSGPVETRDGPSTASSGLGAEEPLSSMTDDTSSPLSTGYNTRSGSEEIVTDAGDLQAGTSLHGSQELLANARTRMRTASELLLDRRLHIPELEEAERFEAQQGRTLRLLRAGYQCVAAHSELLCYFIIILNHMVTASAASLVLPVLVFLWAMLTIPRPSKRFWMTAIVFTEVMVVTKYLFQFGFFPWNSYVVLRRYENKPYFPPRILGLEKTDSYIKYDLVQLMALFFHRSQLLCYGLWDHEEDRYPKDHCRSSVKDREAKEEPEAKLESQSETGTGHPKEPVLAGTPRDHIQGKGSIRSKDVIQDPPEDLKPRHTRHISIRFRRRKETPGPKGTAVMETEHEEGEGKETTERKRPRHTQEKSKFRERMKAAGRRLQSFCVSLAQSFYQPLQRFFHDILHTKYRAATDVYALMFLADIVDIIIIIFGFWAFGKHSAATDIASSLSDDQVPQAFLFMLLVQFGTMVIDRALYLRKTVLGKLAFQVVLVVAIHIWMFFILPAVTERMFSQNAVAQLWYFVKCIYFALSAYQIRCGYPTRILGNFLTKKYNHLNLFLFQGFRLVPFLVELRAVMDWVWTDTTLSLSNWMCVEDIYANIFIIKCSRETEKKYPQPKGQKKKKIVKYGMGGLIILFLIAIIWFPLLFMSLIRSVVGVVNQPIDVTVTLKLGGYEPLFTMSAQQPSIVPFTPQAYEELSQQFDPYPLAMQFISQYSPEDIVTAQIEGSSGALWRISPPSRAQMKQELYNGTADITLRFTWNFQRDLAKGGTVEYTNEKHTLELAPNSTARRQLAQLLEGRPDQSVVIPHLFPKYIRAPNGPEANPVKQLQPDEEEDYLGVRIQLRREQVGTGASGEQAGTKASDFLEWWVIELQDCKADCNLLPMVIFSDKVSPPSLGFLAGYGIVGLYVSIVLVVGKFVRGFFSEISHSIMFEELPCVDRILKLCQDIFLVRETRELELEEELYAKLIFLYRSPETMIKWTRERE
As to the kind of experiment: Calcium imaging of Yoda1 (Piezo1)-mediated [Ca2+]i in pancreatic acini. To be noted: for effect on Yoda1-induced sustained [Ca2+]i elevation, YM26734 and AACOCF3 together: YM26734 10 μM + AACOCF3 30 μM, preincubated 10 minutes; for effect of protein kinase A and C blockers on Yoda1-induced sustained calcium elevation: KT5720 5 μM, GF109203X 20 μM. Format: cell-based. The method, then:
as §1, §2

For data set [2], the target named is T2, Piezo1. As to the kind of experiment: Calcium imaging of Piezo1-mediated [Ca2+]i in mouse PSCs. The note with it: for effect on Yoda1-mediated sustained [Ca2+]i elevation, YM26734 and AACOCF3 together: YM26734 10 μM + AACOCF3 30 μM, Yoda1 25 μM, PSCs from WT mice. Type of data set: cell-based. The method, then: Mouse and human PSCs were isolated using collagenase digestion. Modified Krebs Henseleit Buffer (KHB) solution (100 mL) was prepared as previously described by Romac et al., Nat. Commun. 9(1):1715 (2018). Pancreatic tissue was digested with 2 mg of collagenase NB 8 (SERVA, catalog 17456) dissolved in 10 mL of modified KHB solution containing 1 mg soybean trypsin inhibitor (SBTI 1-S; Millipore Sigma, catalog T9003) and 20 mg BSA (Thermo Fisher Scientific; BP1600-100). Digestion solution (5 mL) was used to inflate the pancreas. Pancreas with 5 mL of digestion solution was incubated in a shaking water bath for 10 minutes at 37° C. The solution was then discarded. The pancreas tissue was cut into small pieces and digested with fresh 5 mL digestion buffer. Tissue was incubated in a shaking water bath for 40 minutes at 37° C. The cells were then separated from tissue by pipetting up-down with a 10 mL pipette and passed sequentially through a 70 μm and a 40 μm cell strainer. The filtrate was centrifuged at 150×g for 3 minutes at room temperature. The cells were washed with 10 mL Leibovitz's media (Thermo Fisher Scientific, catalog 11415-064), passed through a 20 μm filter, and centrifuged at 80×g for 3 minutes at room temperature. The supernate was removed, and isolated stellate cells were plated on a thin-layered Matrigel-coated glass bottom culture plate (MatTek, P35G-0-14-C). Before plating the cells, Matrigel solution (Corning, catalog 354234) at a ratio of 1.5:100 DMEM/F12 (Thermo Fisher Scientific, catalog 11330-032) was poured onto the culture plate and incubated for 2 hr at 37° C. to form a thin layer of Matrigel coating. Matrigel mixture was removed, and the plate was washed with PBS before cells were plated. Cell culture media, DMEM/F12 with 5% FBS was used for mouse stellate cells. Fresh, human pancreatic tissue was digested with collagenase as described above with modifications. Collagenase (2.5 mg) in 10 mL of modified KHB solution was used for digestion. The digested tissues were filtered through a 100 μm cell strainer. The cells were cultured with DMEM/F12 with 10% FBS in a Matrigel-coated plate. After 24 hr, the cell media was replaced with fresh media to remove unattached and dead cells. After 2 days, cells were immunostained for GFAP and used for experiments. Perinuclear fat droplets were stained with BODIPY 493/503 (4,4-Difluoro-1,3,5,7,8-Pentamethyl-4-Bora-3a,4a-Diaza-s-Indacene; Invitrogen, catalog D3922) to confirm stellate cell quiescence. The cell viability following Yoda1 treatment was analyzed using the Live/Dead cell imaging kit (Thermo Fisher Scientific, catalog R37601). RNAs were isolated using the RiboPure Kit (Invitrogen, catalog AM1924) according to manufacturer's instructions.
Fluid shear stress and mechanical pushing applied to stellate cells were achieved as previously described by Wang et al., J. Clin. Invest. 126(12): 4527-4536 (2016). Parallel-plate fluid flow chambers (μ-Slide I 0.4 Luer, or μ-Slide I 0.2 Luer from Ibidi) were used for fluid shear stress experiments. The fluid shear stress (T) was calculated using the formula: τ=η×[…] φ for μ-Slide I 0.4 Luer and τ=η×330.4 φ for μ-Slide I 0.2 Luer, where r represents viscosity of the medium and φ represents flow rate (according to the manufacturer's instructions, Ibidi). Mechanical pushing was achieved by applying a blunt borosilicate glass pipette once to the cell membrane with a deflection of 2-3 μm for 1 second using a micromanipulator (World Precision Instruments).
Calcium 6-QF (Molecular Devices) dye was used for live-cell calcium imaging as described by Romac et al., Nat. Commun. 9(1):1715 (2018). Cells were imaged in HBSS buffer with 2 mM Ca^2+. Faintly and highly fluorescent loaded cells were excluded from analysis. […]

Data set [3] has as its system pancreatic acini. The data set is described as follows: CCK-induced [Ca2+]i in pancreatic acini. Format: cell-based, mouse. Details: effect on CCK-induced sustained [Ca2+]i elevation: dose or concentration left out as unconfirmed. On the procedure: as §1, §2
In data set [4] the test system is pancreatic acini. The data set is described as follows: Cell death assays of pancreatic acini (LDH release, Live/Dead, live-cell imaging). Type of data set: cell-based. The method, then:
The viability of pancreatic acini with Yoda1 and CCK treatments was analyzed using the Live/Dead Cell Imaging Kit (Thermo Fisher Scientific, catalog R37601) or the LDH Release Assay Kit (Promega, catalog G1780).
On the technique in general: Release of lactate dehydrogenase indicates damage to the cell membrane.

Data set [5] deals with pancreatic acini. The data set is described as follows: Mitochondrial depolarization in pancreatic acini (TMRE). Type of data set: cell-based, mouse. On the procedure: Live-cell mitochondrial depolarization was analyzed using the mitochondrial labeling dye, TMRE. Isolated acini were plated on a thin-layered, Matrigel-coated, glass-bottom culture plate with DMEM/F12 and 10% FBS media and placed in a CO2 incubator for 1 hr at 37° C. After 1 hr, the acini were incubated with TMRE (200 nM) in the bath buffer containing 140 mM NaCl, 4.7 mM KCl, 2.0 CaCl2, 1 mM MgCl2, 10 mM HEPES, and 10 mM glucose (pH adjusted to 7.4 with NaOH) for 30 minutes. The TMRE dye was washed and replaced with fresh bath buffer. The images were captured with a Zeiss Axio observer Z1 microscope with MetaMorph software (Molecular Devices) at intervals of 600 ms. TMRE was excited at 540-600 nm and emission collected at 585-675 nm. Carbonyl cyanide 4-(trifluoromethoxy) phenylhydrazone (FCCP), which uncouples the oxidative phosphorylation process and depolarizes mitochondria, was used as a positive control. A maximum of 2 mitochondrial puncta were taken per acinar cell.

Data set [6] concerns pancreatic acini. As to the kind of experiment: Trypsinogen activation in pancreatic acini (BZiPAR). Format: cell-based, mouse. The method, then: To visualize Piezo1-induced trypsinogen activation, acini were loaded with active trypsin enzyme substrate BZiPAR (10 μM). Na-HEPES buffer with 2 mM Ca^2+ was used during imaging. A Zeiss Axio observer Z1 with a high-sensitivity EMCCD camera with a ×40/0.75 EC-Plan-NeoFluar DIC objective was used to capture the Z-stack images with stack thickness of 3 μm at an interval of 12 seconds. The BZiPAR fluorescent wavelength Ex/Em was 498/521 nm. BZiPAR was excited at 470-510 nm and emission collected at 495-550 nm. The captured images were analyzed with MetaMorph software (Molecular Devices).

T1 sequence (Q9EPK8 whole entry): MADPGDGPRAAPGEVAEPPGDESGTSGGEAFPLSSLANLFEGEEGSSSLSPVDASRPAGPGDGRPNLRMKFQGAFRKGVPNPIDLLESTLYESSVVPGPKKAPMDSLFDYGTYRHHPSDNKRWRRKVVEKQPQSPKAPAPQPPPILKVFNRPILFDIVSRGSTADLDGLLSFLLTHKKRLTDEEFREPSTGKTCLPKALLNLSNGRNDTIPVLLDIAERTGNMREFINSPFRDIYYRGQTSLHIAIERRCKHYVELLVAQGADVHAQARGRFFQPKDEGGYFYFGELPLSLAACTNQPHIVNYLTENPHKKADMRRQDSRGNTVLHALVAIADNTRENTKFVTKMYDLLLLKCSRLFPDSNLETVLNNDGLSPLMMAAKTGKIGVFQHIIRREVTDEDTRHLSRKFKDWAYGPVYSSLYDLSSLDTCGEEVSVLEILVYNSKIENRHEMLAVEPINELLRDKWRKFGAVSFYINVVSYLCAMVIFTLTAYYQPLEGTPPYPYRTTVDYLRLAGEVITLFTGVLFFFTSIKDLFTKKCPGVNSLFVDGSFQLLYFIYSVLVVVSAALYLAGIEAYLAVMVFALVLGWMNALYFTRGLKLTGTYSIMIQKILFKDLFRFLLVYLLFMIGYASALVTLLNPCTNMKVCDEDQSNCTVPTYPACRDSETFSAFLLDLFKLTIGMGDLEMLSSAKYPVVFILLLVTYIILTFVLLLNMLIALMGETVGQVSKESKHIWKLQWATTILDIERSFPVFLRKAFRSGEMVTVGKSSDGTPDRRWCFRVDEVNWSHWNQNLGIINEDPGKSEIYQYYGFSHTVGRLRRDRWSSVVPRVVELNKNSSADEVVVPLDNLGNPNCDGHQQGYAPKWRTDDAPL

Consider `CCCCC/C=C\C/C=C\C/C=C\CC1OC1CCCC(=O)O` (stereo not drawn) [5′,6′-EET, 5′,6′-epoxyeicosatrienoic acid], for which the “agonist effect on [Ca2+]i” value on TRPV4 was “induced significant increases in [Ca^2+]i”.

With `CCCCC/C=C\C/C=C\C/C=C\C/C=C\CCCC(=O)O` [AA, arachidonic acid], the “agonist effect on [Ca2+]i” value on TRPV4 was “induced significant increases in [Ca^2+]i”.

In the case of `CCCCC/C=C\C/C=C\C/C=C\C/C=C\CCCC(=O)C(F)(F)F` [AACOCF3], the “effect on Yoda1-induced sustained [Ca2+]i elevation, YM26734 and AACOCF3 together” value on Piezo1 [1] (Yoda1 25 μM) was “blocked the Yoda1-induced sustained [Ca^2+]i elevation”. For the same molecule, at Piezo1 [2], the “effect on Yoda1-mediated sustained [Ca2+]i elevation, YM26734 and AACOCF3 together” value is “significantly inhibited the Yoda1-mediated sustained elevation in [Ca^2+]i”.

On to `CC(=O)OCOC(=O)CN(CC(=O)OCOC(C)=O)c1ccccc1OCCOc1ccccc1N(CC(=O)OCOC(C)=O)CC(=O)OCOC(C)=O` [BAPTA-AM], for which the “effect on Yoda1-induced sustained Ca2+ rise” value at Piezo1 [1] (BAPTA-AM 20 μM preincubated 30 minutes, Yoda1 50 μM) is on record as “abolished the sustained Ca^2+ rise”. In the data set on pancreatic acini [3] (BAPTA-AM 20 μM preincubated 30 minutes, CCK 1 nM), the “effect on CCK-induced [Ca2+]i” value was “completely eliminated the effect of CCK on [Ca^2+]i”. In the data set with pancreatic acini [4] (BAPTA-AM preincubated 30 minutes, Yoda1 50 μM), the “effect on Yoda1-induced LDH release” value is reported as “protected pancreatic acini from Yoda1-induced LDH release”. The “effect on Yoda1-induced mitochondrial depolarization” value with pancreatic acini [5] (BAPTA-AM 20 μM preincubated 20 minutes) is reported as “protected from Yoda1-induced mitochondrial depolarization”.

In the case of `Cc1cccc(F)c1C(=O)Nc1cnc(-c2cc3c(cc2Cl)OC(F)(F)O3)cn1` [CM4620], at Piezo1 [1] (CM4620 5 μM preincubated 1 hr, Yoda1 25 μM), the “effect on Yoda1-induced [Ca2+]i rise” value was “did not alter the rise in [Ca^2+]i following Yoda1 stimulation”. The “effect on CCK-induced sustained [Ca2+]i elevation” value in the data set on pancreatic acini [3] (CM4620 preincubated 1 hr, CCK) was “blocked the sustained elevation in [Ca^2+]i produced by CCK”. Also, the “completeness of block of CCK-induced [Ca2+]i rise” value in the data set on pancreatic acini [3] (CM4620 preincubated 1 hr, either concentration of CCK, residual calcium wave) was “did not completely block the [Ca^2+]i rise”.

`CN(C)CCCn1cc(C2=C(c3c[nH]c4ccccc34)C(=O)NC2=O)c2ccccc21` [GF109203X]: at Piezo1 [1], the “effect of protein kinase A and C blockers on Yoda1-induced sustained calcium elevation” value was “did not significantly affect the Yoda1-induced sustained calcium elevation”.

As for `CCCCCCOC(=O)[C@]1(O)C[C@@H]2O[C@@]1(C)n1c3ccccc3c3c4c(c5c6ccccc6n2c5c31)C(=O)NC4` [KT5720], the “effect of protein kinase A and C blockers on Yoda1-induced sustained calcium elevation” value at Piezo1 [1] was “did not significantly affect the Yoda1-induced sustained calcium elevation”.

With `CC(C)NCCN(C(C)C)S(=O)(=O)c1ccc(Cl)cc1Cl` [RN1734], the “effect on GSK101 (50 nM)-induced [Ca2+]i increase” value at TRPV4 (HC067 100 nM, RN1734 30 μM) was “inhibited”.

Regarding `CCCCCCCCCCCC(=O)c1c(O)c(C(=O)CCCCCCCCCCC)c(O)c(C2CC(c3ccc(O)cc3)Oc3cc(O)ccc32)c1O` (stereo not drawn) [YM26734], the “effect on Yoda1-induced sustained [Ca2+]i elevation, YM26734 and AACOCF3 together” value at Piezo1 [1] (Yoda1 25 μM) is “blocked the Yoda1-induced sustained [Ca^2+]i elevation”. Moreover, the “effect of the secretory PLA2 inhibitor alone on Yoda1-induced sustained [Ca2+]i elevation” value on Piezo1 [1] (YM26734 10 μM, Yoda1 25 μM) was “substantial and capable of blocking the sustained [Ca^2+]i elevation”. The “effect on Yoda1-mediated sustained [Ca2+]i elevation, YM26734 and AACOCF3 together” value at Piezo1 [2] is “significantly inhibited the Yoda1-mediated sustained elevation in [Ca^2+]i”.

`C[C@H](CCC(=O)O)C[C@H](C)C[C@H](C)C(=O)/C=C(\O)[C@H](C)C[C@H](C)C/C=C/[C@@H](C)[C@@H](O)[C@@H](C)[C@@H](O)C[C@@H]1CC[C@@](C)([C@H]2CC[C@@](C)([C@@H](C)O)O2)O1` [ionomycin]: the “[Ca2+]i response to ionomycin after Yoda1 (25 μM) treatment” value at Piezo1 [2] (ionomycin 1 μM, mouse PSCs) is on record as “All cells responded”.

Consider “CCK: secretagogue that stimulates pancreatic enzyme secretion by increasing [Ca2+]i”, for which the “cell damage (LDH release) in WT vs Piezo1aci-KO acini” value with pancreatic acini [4] (CCK 1 nM) was “produced comparable cell damage”. Further, in the data set with pancreatic acini [4] (Yoda1 50 μM + CCK 1 nM, WT acini), the “acinar cell death, both Yoda1 and CCK vs individual application” value is recorded as “acinar cell death was greater”. Moreover, the “time to mitochondrial depolarization after application” value with pancreatic acini [5] (Yoda1 50 μM, CCK 10 nM) was above 10 min. In the data set with pancreatic acini [6] (CCK 10 nM), the “CCK-mediated trypsin activation, WT vs Piezo1aci-KO acini” value is listed as “similar”. Also, the “trypsin activation (BZiPAR fluorescence)” value in the data set with pancreatic acini [6] (Yoda1 50 μM or CCK 10 nM) is given as “activated trypsin in pancreatic acini over time”. The “time to trypsin activation after application” value in the data set on pancreatic acini [6] (Yoda1 50 μM, CCK 10 nM) was above 20 min.
